Data published in ChEMBL document CHEMBL4387728, “Synthetic glycopeptides reveal specific binding pattern and conformational change at O-mannosylated position of α-dystroglycan by POMGnT1 catalyzed GlcNAc modification” (Bioorg Med Chem, 2019).
Calls of active or inactive are those of the source. The calls are words filed in the database; no cut-off is given here. Peptide text beside a SMILES is read from it. * marks the point of attachment. X1 = CC(=O)N[C@H]1[C@H](O[C@H]2[C@@H](O)[C@H](O)[C@@H](CO)O[C@@H]2*)O[C@H](CO)[C@@H](O[C@@H]2O[C@H](CO)[C@H](O)[C@H](O[C@]3(C(=O)O)C[C@H](O)[C@@H](NC(C)=O)[C@H]([C@H](O)[C@H](O)CO)O3)[C@H]2O)[C@@H]1O; GlcNAc(β1-2)αMan = CC(=O)N[C@H]1[C@H](O[C@H]2[C@@H](O)[C@H](O)[C@@H](CO)O[C@@H]2*)O[C@H](CO)[C@@H](O)[C@@H]1O; Hexanoyl(5-oxo) = CC(=O)CCCC(=O)*

Tests used:
[1] = tested on: Canavalia ensiformis; assay: Binding affinity to biotin-labeled Canavalia ensiformis agglutinin in pH 7.4 Tris buffer by fluorescence microarray method
[2] = target: Lactotransferrin (Homo sapiens) (UniProt P02788); assay: Binding affinity to biotin-labeled lactoferrin (unknown origin) at 10 ug/ml in pH 5.6 MES buffer by fluorescence microarray method
Lactotransferrin (Homo sapiens), sequence (P02788 whole entry): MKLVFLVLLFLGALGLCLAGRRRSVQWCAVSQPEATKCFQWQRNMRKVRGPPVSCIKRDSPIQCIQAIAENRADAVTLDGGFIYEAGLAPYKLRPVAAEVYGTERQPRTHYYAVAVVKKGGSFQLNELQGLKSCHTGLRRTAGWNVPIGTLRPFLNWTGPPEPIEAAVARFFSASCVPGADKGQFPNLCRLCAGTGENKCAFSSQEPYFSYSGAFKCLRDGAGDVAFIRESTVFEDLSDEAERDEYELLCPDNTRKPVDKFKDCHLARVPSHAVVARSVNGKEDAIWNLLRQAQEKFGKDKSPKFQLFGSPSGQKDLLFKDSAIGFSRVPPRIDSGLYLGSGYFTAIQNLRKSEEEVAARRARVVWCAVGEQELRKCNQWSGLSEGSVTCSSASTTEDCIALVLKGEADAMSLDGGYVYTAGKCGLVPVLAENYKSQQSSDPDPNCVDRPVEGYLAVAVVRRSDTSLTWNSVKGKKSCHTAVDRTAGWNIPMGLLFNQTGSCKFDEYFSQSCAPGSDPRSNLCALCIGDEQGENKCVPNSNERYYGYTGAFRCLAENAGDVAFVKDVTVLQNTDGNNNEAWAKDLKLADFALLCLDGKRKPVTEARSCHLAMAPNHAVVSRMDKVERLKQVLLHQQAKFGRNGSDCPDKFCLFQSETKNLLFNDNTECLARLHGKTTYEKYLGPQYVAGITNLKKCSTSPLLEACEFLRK

[3] = organism: Homo sapiens; assay: Binding affinity to biotin-labeled human recombinant laminin-2 at 10 ug/ml in 5.6 MES buffer by fluorescence microarray method
[4] = organism: Homo sapiens; assay: Binding affinity to biotin-labeled human recombinant laminin-2 at 10 ug/ml in pH 7.4 Tris buffer by fluorescence microarray method
[5] = tested on: Maackia amurensis; assay: Binding affinity to biotin-labeled Maackia amurensis agglutinin in pH 7.4 Tris buffer by fluorescence microarray method
[6] = tested on: Sambucus racemosa subsp. sieboldiana; assay: Binding affinity to biotin-labeled Sambucus sieboldiana agglutinin in pH 7.4 Tris buffer by fluorescence microarray method
[7] = Binding affinity to biotin-labeled Agaricus bisporus agglutinin in pH 7.4 Tris buffer by fluorescence microarray method
[8] = tested on: Triticum aestivum; assay: Binding affinity to biotin-labeled Wheat germ agglutinin in pH 7.4 Tris buffer by fluorescence microarray method
[9] = target: Laminin subunit alpha-1 (Homo sapiens) (UniProt P25391); assay: Binding affinity to biotin-labeled human recombinant laminin-1 at 10 ug/ml in pH 7.4 Tris buffer by fluorescence microarray method
Laminin subunit alpha-1 (Homo sapiens), sequence (P25391 whole entry): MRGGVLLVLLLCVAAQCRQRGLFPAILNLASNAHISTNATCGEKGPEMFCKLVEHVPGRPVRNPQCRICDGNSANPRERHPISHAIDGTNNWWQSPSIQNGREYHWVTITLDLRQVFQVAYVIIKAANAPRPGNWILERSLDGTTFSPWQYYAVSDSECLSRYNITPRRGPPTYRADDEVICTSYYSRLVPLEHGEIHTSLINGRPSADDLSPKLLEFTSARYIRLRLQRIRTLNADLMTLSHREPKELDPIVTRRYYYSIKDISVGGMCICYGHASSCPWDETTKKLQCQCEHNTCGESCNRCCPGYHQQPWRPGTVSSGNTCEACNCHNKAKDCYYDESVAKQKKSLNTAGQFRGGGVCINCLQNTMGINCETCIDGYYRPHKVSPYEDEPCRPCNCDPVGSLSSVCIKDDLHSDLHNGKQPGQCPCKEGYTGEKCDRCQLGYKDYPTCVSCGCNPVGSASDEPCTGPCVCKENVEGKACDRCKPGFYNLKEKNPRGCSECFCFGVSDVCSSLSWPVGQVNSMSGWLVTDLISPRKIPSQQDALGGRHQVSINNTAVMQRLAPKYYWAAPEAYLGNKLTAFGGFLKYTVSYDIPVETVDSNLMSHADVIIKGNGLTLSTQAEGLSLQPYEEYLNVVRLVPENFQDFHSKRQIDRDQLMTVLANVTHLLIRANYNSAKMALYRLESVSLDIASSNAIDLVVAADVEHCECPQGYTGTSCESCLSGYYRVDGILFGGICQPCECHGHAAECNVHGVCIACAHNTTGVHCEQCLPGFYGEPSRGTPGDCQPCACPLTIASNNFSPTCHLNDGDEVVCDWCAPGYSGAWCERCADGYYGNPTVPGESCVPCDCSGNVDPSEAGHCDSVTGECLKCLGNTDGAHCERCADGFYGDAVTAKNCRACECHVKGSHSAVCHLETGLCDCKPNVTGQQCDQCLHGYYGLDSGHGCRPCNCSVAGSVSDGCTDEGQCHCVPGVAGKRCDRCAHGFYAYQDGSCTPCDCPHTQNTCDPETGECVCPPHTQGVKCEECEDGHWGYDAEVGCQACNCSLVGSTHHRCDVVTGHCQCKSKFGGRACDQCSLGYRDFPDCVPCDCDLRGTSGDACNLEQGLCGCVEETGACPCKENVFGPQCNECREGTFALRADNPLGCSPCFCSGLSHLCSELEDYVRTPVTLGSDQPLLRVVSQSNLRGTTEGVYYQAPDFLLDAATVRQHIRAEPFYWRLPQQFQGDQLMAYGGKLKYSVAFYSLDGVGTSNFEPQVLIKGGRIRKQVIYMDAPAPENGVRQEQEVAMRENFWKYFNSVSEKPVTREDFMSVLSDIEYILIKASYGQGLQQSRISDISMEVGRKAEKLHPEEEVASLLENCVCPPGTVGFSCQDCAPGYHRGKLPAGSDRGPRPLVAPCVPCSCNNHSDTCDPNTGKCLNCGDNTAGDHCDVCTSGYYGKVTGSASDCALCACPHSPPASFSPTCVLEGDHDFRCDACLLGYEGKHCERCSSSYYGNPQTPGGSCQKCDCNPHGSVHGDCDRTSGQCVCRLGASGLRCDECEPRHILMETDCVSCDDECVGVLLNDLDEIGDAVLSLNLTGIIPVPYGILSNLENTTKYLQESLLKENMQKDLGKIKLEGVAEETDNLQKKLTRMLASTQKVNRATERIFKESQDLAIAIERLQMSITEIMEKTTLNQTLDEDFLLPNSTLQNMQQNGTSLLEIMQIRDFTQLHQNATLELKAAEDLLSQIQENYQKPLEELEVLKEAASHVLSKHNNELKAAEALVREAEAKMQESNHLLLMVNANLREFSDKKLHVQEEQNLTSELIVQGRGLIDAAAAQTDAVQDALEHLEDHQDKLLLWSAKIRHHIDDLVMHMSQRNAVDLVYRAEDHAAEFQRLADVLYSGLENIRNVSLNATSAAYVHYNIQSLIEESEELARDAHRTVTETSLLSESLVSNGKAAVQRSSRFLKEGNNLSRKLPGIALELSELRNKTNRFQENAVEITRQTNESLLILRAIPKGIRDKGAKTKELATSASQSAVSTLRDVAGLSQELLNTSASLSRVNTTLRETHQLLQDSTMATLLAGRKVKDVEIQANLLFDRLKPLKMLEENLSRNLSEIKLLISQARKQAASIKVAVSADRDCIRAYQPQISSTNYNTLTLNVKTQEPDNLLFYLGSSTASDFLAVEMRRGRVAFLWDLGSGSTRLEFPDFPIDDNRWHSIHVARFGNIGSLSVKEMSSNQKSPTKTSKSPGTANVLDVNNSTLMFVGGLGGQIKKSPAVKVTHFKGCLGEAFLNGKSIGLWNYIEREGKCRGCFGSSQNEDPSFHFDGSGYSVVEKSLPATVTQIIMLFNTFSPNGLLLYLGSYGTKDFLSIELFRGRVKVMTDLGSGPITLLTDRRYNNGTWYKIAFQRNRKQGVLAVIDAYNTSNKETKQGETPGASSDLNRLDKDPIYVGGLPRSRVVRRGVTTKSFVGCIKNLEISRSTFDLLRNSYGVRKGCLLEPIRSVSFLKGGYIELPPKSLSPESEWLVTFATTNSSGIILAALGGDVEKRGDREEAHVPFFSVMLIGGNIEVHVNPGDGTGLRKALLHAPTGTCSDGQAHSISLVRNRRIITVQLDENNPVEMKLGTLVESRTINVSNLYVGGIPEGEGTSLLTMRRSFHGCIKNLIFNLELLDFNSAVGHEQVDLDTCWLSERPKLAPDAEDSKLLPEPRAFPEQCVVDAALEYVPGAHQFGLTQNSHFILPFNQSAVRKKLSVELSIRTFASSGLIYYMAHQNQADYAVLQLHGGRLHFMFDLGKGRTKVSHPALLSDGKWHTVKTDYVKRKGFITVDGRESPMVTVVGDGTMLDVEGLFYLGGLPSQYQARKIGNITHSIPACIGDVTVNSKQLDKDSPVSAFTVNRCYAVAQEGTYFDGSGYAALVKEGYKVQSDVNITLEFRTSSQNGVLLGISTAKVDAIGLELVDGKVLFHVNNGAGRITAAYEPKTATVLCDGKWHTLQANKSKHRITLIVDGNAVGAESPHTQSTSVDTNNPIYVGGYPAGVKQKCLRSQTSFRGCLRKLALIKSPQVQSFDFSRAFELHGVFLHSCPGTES

[10] = target: Lactotransferrin (Homo sapiens) (UniProt P02788); assay: Binding affinity to biotin-labeled lactoferrin (unknown origin) at 10 ug/ml in pH 7.4 Tris buffer by fluorescence microarray method
[11] = tested on: Arachis hypogaea; assay: Binding affinity to biotin-labeled Arachis hypogaea agglutinin in pH 7.4 Tris buffer by fluorescence microarray method
[12] = tested on: Datura stramonium; assay: Binding affinity to biotin-labeled Datura stramonium agglutinin in pH 7.4 Tris buffer by fluorescence microarray method
[13] = target: Laminin subunit alpha-1 (Homo sapiens) (UniProt P25391); assay: Binding affinity to biotin-labeled human recombinant laminin-1 at 10 ug/ml in pH 5.6 MES buffer by fluorescence microarray method
[14] = tested on: Erythrina crista-galli; assay: Binding affinity to biotin-labeled Erythrina crista-galli agglutinin in pH 7.4 Tris buffer by fluorescence microarray method

Activity [1] | Activity [2] | Activity [3] | Activity [4] | Activity [5] | Activity [6] | Activity [7] | Activity [8] | Activity [9] | Activity [10] | Activity [11] | Activity [12] | Activity [13] | Activity [14] | SMILES
Active | Active | Active | inactive | inactive | Active | Active | Active | Active | inactive | Active | inactive | Active | Active | CC[C@H](C)[C@H](NC(=O)[C@H](C)NC(=O)CNC(=O)[C@H](CCCNC(=N)N)NC(=O)[C@@H](NC(=O)CCCC(C)=O)[C@@H](C)O)C(=O)N[C@H](C(=O)N[C@@H](CCC(N)=O)C(=O)N[C@H](C(=O)N1CCC[C@H]1C(=O)N[C@H](C(=O)N[C@@H](CC(C)C)C(=O)NCC(=O)N1CCC[C@H]1C(=O)N[C@H](C(=O)N[C@@H](CCC(N)=O)C(=O)N1CCC[C@H]1C(=O)N[C@H](C(=O)N[C@@H](CCCNC(=N)N)C(=O)N[C@H](C(N)=O)C(C)C)[C@@H](C)O[C@H]1O[C@H](CO)[C@@H](O)[C@H](O)[C@@H]1O[C@@H]1O[C@H](CO)[C@@H](O)[C@H](O)[C@H]1NC(C)=O)[C@@H](C)CC)[C@@H](C)O)[C@@H](C)O)[C@@H](C)CC ({Hexanoyl(5-oxo)}-TRGAIIQTPTLGPIQPT(GlcNAc(β1-2)αMan)RV-NH2)
Active | Active | Active | inactive | inactive | Active | Active | Active | Active | inactive | Active | inactive | Active | Active | CC[C@H](C)[C@H](NC(=O)[C@H](C)NC(=O)CNC(=O)[C@H](CCCNC(=N)N)NC(=O)[C@@H](NC(=O)CCCC(C)=O)[C@@H](C)O)C(=O)N[C@H](C(=O)N[C@@H](CCC(N)=O)C(=O)N[C@H](C(=O)N1CCC[C@H]1C(=O)N[C@H](C(=O)N[C@@H](CC(C)C)C(=O)NCC(=O)N1CCC[C@H]1C(=O)N[C@H](C(=O)N[C@@H](CCC(N)=O)C(=O)N1CCC[C@H]1C(=O)N[C@H](C(=O)N[C@@H](CCCNC(=N)N)C(=O)N[C@H](C(N)=O)C(C)C)[C@@H](C)O)[C@@H](C)CC)[C@@H](C)O)[C@@H](C)O[C@H]1O[C@H](CO)[C@@H](O)[C@H](O)[C@@H]1O[C@@H]1O[C@H](CO)[C@@H](O)[C@H](O)[C@H]1NC(C)=O)[C@@H](C)CC ({Hexanoyl(5-oxo)}-TRGAIIQT(GlcNAc(β1-2)αMan)PTLGPIQPTRV-NH2)
Active | Active | Active | inactive | inactive | Active | Active | Active | Active | inactive | Active | inactive | Active | Active | CC[C@H](C)[C@H](NC(=O)[C@H](C)NC(=O)CNC(=O)[C@H](CCCNC(=N)N)NC(=O)[C@@H](NC(=O)CCCC(C)=O)[C@@H](C)O)C(=O)N[C@H](C(=O)N[C@@H](CCC(N)=O)C(=O)N[C@H](C(=O)N1CCC[C@H]1C(=O)N[C@H](C(=O)N[C@@H](CC(C)C)C(=O)NCC(=O)N1CCC[C@H]1C(=O)N[C@H](C(=O)N[C@@H](CCC(N)=O)C(=O)N1CCC[C@H]1C(=O)N[C@H](C(=O)N[C@@H](CCCNC(=N)N)C(=O)N[C@H](C(N)=O)C(C)C)[C@@H](C)O[C@H]1O[C@H](CO)[C@@H](O)[C@H](O)[C@@H]1O[C@@H]1O[C@H](CO)[C@@H](O[C@@H]2O[C@H](CO)[C@H](O)[C@H](O[C@]3(C(=O)O)C[C@H](O)[C@@H](NC(C)=O)[C@H]([C@H](O)[C@H](O)CO)O3)[C@H]2O)[C@H](O)[C@H]1NC(C)=O)[C@@H](C)CC)[C@@H](C)O[C@H]1O[C@H](CO)[C@@H](O)[C@H](O)[C@@H]1O[C@@H]1O[C@H](CO)[C@@H](O[C@@H]2O[C@H](CO)[C@H](O)[C@H](O[C@]3(C(=O)O)C[C@H](O)[C@@H](NC(C)=O)[C@H]([C@H](O)[C@H](O)CO)O3)[C@H]2O)[C@H](O)[C@H]1NC(C)=O)[C@@H](C)O[C@H]1O[C@H](CO)[C@@H](O)[C@H](O)[C@@H]1O[C@@H]1O[C@H](CO)[C@@H](O[C@@H]2O[C@H](CO)[C@H](O)[C@H](O[C@]3(C(=O)O)C[C@H](O)[C@@H](NC(C)=O)[C@H]([C@H](O)[C@H](O)CO)O3)[C@H]2O)[C@H](O)[C@H]1NC(C)=O)[C@@H](C)CC
Active | Active | Active | inactive | inactive | Active | Active | Active | Active | inactive | Active | inactive | Active | Active | CC[C@H](C)[C@H](NC(=O)[C@H](C)NC(=O)CNC(=O)[C@H](CCCNC(=N)N)NC(=O)[C@@H](NC(=O)CCCC(C)=O)[C@@H](C)O)C(=O)N[C@H](C(=O)N[C@@H](CCC(N)=O)C(=O)N[C@H](C(=O)N1CCC[C@H]1C(=O)N[C@H](C(=O)N[C@@H](CC(C)C)C(=O)NCC(=O)N1CCC[C@H]1C(=O)N[C@H](C(=O)N[C@@H](CCC(N)=O)C(=O)N1CCC[C@H]1C(=O)N[C@H](C(=O)N[C@@H](CCCNC(=N)N)C(=O)N[C@H](C(N)=O)C(C)C)[C@@H](C)O[C@H]1O[C@H](CO)[C@@H](O)[C@H](O)[C@@H]1O[C@@H]1O[C@H](CO)[C@@H](O)[C@H](O)[C@H]1NC(C)=O)[C@@H](C)CC)[C@@H](C)O[C@H]1O[C@H](CO)[C@@H](O)[C@H](O)[C@@H]1O[C@@H]1O[C@H](CO)[C@@H](O)[C@H](O)[C@H]1NC(C)=O)[C@@H](C)O[C@H]1O[C@H](CO)[C@@H](O)[C@H](O)[C@@H]1O[C@@H]1O[C@H](CO)[C@@H](O)[C@H](O)[C@H]1NC(C)=O)[C@@H](C)CC ({Hexanoyl(5-oxo)}-TRGAIIQT(GlcNAc(β1-2)αMan)PT(GlcNAc(β1-2)αMan)LGPIQPT(GlcNAc(β1-2)αMan)RV-NH2)
Active | Active | Active | inactive | inactive | Active | Active | Active | Active | inactive | Active | inactive | Active | Active | CC[C@H](C)[C@H](NC(=O)[C@H](C)NC(=O)CNC(=O)[C@H](CCCNC(=N)N)NC(=O)[C@@H](NC(=O)CCCC(C)=O)[C@@H](C)O)C(=O)N[C@H](C(=O)N[C@@H](CCC(N)=O)C(=O)N[C@H](C(=O)N1CCC[C@H]1C(=O)N[C@H](C(=O)N[C@@H](CC(C)C)C(=O)NCC(=O)N1CCC[C@H]1C(=O)N[C@H](C(=O)N[C@@H](CCC(N)=O)C(=O)N1CCC[C@H]1C(=O)N[C@H](C(=O)N[C@@H](CCCNC(=N)N)C(=O)N[C@H](C(N)=O)C(C)C)[C@@H](C)O[C@H]1O[C@H](CO)[C@@H](O)[C@H](O)[C@@H]1O[C@@H]1O[C@H](CO)[C@@H](O[C@@H]2O[C@H](CO)[C@H](O)[C@H](O[C@]3(C(=O)O)C[C@H](O)[C@@H](NC(C)=O)[C@H]([C@H](O)[C@H](O)CO)O3)[C@H]2O)[C@H](O)[C@H]1NC(C)=O)[C@@H](C)CC)[C@@H](C)O[C@H]1O[C@H](CO)[C@@H](O)[C@H](O)[C@@H]1O[C@@H]1O[C@H](CO)[C@@H](O[C@@H]2O[C@H](CO)[C@H](O)[C@H](O[C@]3(C(=O)O)C[C@H](O)[C@@H](NC(C)=O)[C@H]([C@H](O)[C@H](O)CO)O3)[C@H]2O)[C@H](O)[C@H]1NC(C)=O)[C@@H](C)O)[C@@H](C)CC ({Hexanoyl(5-oxo)}-TRGAIIQTPT(X1)LGPIQPT(X1)RV-NH2)
Active | Active | Active | inactive | inactive | Active | Active | Active | Active | inactive | Active | inactive | Active | Active | CC[C@H](C)[C@H](NC(=O)[C@H](C)NC(=O)CNC(=O)[C@H](CCCNC(=N)N)NC(=O)[C@@H](NC(=O)CCCC(C)=O)[C@@H](C)O)C(=O)N[C@H](C(=O)N[C@@H](CCC(N)=O)C(=O)N[C@H](C(=O)N1CCC[C@H]1C(=O)N[C@H](C(=O)N[C@@H](CC(C)C)C(=O)NCC(=O)N1CCC[C@H]1C(=O)N[C@H](C(=O)N[C@@H](CCC(N)=O)C(=O)N1CCC[C@H]1C(=O)N[C@H](C(=O)N[C@@H](CCCNC(=N)N)C(=O)N[C@H](C(N)=O)C(C)C)[C@@H](C)O)[C@@H](C)CC)[C@@H](C)O[C@H]1O[C@H](CO)[C@@H](O)[C@H](O)[C@@H]1O[C@@H]1O[C@H](CO)[C@@H](O)[C@H](O)[C@H]1NC(C)=O)[C@@H](C)O[C@H]1O[C@H](CO)[C@@H](O)[C@H](O)[C@@H]1O[C@@H]1O[C@H](CO)[C@@H](O)[C@H](O)[C@H]1NC(C)=O)[C@@H](C)CC ({Hexanoyl(5-oxo)}-TRGAIIQT(GlcNAc(β1-2)αMan)PT(GlcNAc(β1-2)αMan)LGPIQPTRV-NH2)
